What was measured:
Assay in all cases: relative viability (nuclei count vs DMSO), 5 days (fraction); higher = more cells survive
AZ505 + Luminespib = compound: C1CCC(CC1)N(CCNCCC2=C3C(=C(C=C2)O)NC(=O)CO3)C(=O)CCNCCC4=CC(=C(C=C4)Cl)Cl [AZ505] + CCNC(=O)c1noc(-c2cc(C(C)C)c(O)cc2O)c1-c1ccc(CN2CCOCC2)cc1 [Luminespib] (partner 0.01 µM)
In short: (§1)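 Values are medians from duplicate plates. Each reflects relative viability, defined as the nuclei count of treated wells over that of vehicle wells. Lung cancer cell lines in 1536-well plates were pin-tool dosed one day after seeding with one drug alone or with a fixed anchor-drug dose plus five library-drug doses (not always all listed) in √10 steps, then fixed, stained and imaged at 4× after 5 days.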

Dactolisib + OSI-027 = compound: Cn1c(=O)n(-c2ccc(C(C)(C)C#N)cc2)c2c3cc(-c4cnc5ccccc5c4)ccc3ncc21 [Dactolisib] + COc1cccc2cc(-c3nc([C@H]4CC[C@H](C(=O)O)CC4)n4ncnc(N)c34)[nH]c12 [OSI-027] (partner 0.5 µM)
In short: as §1

AZ505 + Pictilisib = compound: C1CCC(CC1)N(CCNCCC2=C3C(=C(C=C2)O)NC(=O)CO3)C(=O)CCNCCC4=CC(=C(C=C4)Cl)Cl [AZ505] + CS(=O)(=O)N1CCN(Cc2cc3nc(-c4cccc5[nH]ncc45)nc(N4CCOCC4)c3s2)CC1 [Pictilisib] (partner 1 µM)
In short: as §1

Dactolisib + AZD7762 = compound: Cn1c(=O)n(-c2ccc(C(C)(C)C#N)cc2)c2c3cc(-c4cnc5ccccc5c4)ccc3ncc21 [Dactolisib] + NC(=O)Nc1cc(-c2cccc(F)c2)sc1C(=O)N[C@H]1CCCNC1 [AZD7762] (partner 0.2 µM)
In short: as §1

Cell Line	relative viability (AZ505 + Luminespib; first compound 0.08 µM)	relative viability (AZ505 + Luminespib; first compound 0.253 µM)	relative viability (AZ505 + Luminespib; first compound 0.8 µM)	relative viability (AZ505 + Luminespib; first compound 2.53 µM)	relative viability (AZ505 + Luminespib; first compound 8 µM)	relative viability (Dactolisib + OSI-027; first compound 0.002 µM)	relative viability (Dactolisib + OSI-027; first compound 0.006325 µM)	relative viability (Dactolisib + OSI-027; first compound 0.02 µM)	relative viability (Dactolisib + OSI-027; first compound 0.06325 µM)	relative viability (Dactolisib + OSI-027; first compound 0.2 µM)	relative viability (AZ505 + Pictilisib; first compound 0.08 µM)	relative viability (AZ505 + Pictilisib; first compound 0.253 µM)	relative viability (AZ505 + Pictilisib; first compound 0.8 µM)	relative viability (AZ505 + Pictilisib; first compound 2.53 µM)	relative viability (AZ505 + Pictilisib; first compound 8 µM)	relative viability (Dactolisib + AZD7762; first compound 0.002 µM)	relative viability (Dactolisib + AZD7762; first compound 0.006325 µM)	relative viability (Dactolisib + AZD7762; first compound 0.02 µM)	relative viability (Dactolisib + AZD7762; first compound 0.06325 µM)	relative viability (Dactolisib + AZD7762; first compound 0.2 µM)
201T	1.01	1.05	1.01	1.02	1.08	0.715	0.749	0.682	0.747	0.509	0.651	0.678	0.613	0.633	0.674	0.578	0.64	0.613	0.464	0.402
A549	–	–	–	–	–	–	–	–	–	–	0.461	0.569	0.519	0.585	0.59	–	–	–	–	–
A-427	0.708	1.02	0.789	1.01	1.38	0.59	0.461	0.47	0.375	0.419	0.693	0.514	0.566	0.726	0.741	0.749	0.698	0.688	0.498	0.306
ABC-1	0.865	0.472	0.524	0.839	0.717	0.494	0.519	0.569	0.43	0.349	0.711	0.618	0.759	0.662	0.57	0.925	0.805	0.738	0.761	0.557
BEN	0.367	0.564	0.352	0.336	0.449	0.302	0.33	0.302	0.32	0.315	0.498	0.611	0.565	0.599	0.622	0.781	0.645	0.547	0.588	0.41
CAL-12T	0.341	0.596	0.265	0.377	0.64	0.894	0.635	0.521	0.318	0.239	0.445	0.355	0.559	0.432	0.512	0.573	0.691	0.638	0.424	0.357
COR-L23	0.54	0.771	0.611	0.613	0.706	0.917	0.796	0.59	0.289	0.259	0.546	0.741	0.486	0.686	0.535	–	–	–	–	–
COR-L 105	0.739	0.707	0.765	0.831	0.905	0.776	0.619	0.478	0.385	0.314	0.368	0.391	0.375	0.355	0.497	–	–	–	–	–
Calu-6	–	–	–	–	–	–	–	–	–	–	0.835	0.989	0.884	0.905	0.867	–	–	–	–	–
ChaGo-K-1	0.513	0.603	0.556	0.673	0.474	0.538	0.528	0.571	0.537	0.609	0.824	0.58	0.691	0.819	0.901	0.913	0.845	0.811	0.877	0.814
EBC-1	–	–	–	–	–	–	–	–	–	–	0.374	0.375	0.345	0.354	0.328	–	–	–	–	–
EKVX	0.873	0.615	0.831	0.846	0.91	0.678	0.655	0.697	0.536	0.389	0.388	0.466	0.425	0.446	0.501	0.693	0.73	0.659	0.589	0.303
EMC-BAC-2	1.14	1.13	1.23	1.03	1.19	0.395	0.439	0.405	0.346	0.296	0.485	0.523	0.505	0.471	0.507	1.14	0.955	0.984	0.662	0.607
EPLC-272H	–	0.161	0.373	0.25	0.301	0.34	0.288	0.356	0.334	0.3	0.255	0.306	0.285	0.256	0.289	0.218	0.273	0.249	0.165	0.148
H3255	0.887	0.811	0.939	0.876	0.963	0.724	0.469	0.623	0.609	0.488	0.395	0.39	0.48	0.424	0.598	0.921	0.963	0.803	0.828	0.551
HARA	0.622	0.32	0.444	0.628	0.324	0.576	0.525	0.602	0.322	0.264	0.267	0.399	0.287	0.228	0.264	0.271	0.463	0.59	0.438	0.27
